Experimental data published in paper PMC5290327, “SC83288 is a clinical development candidate for the treatment of severe malaria” (Nature Communications, 2017).

Columns and labels:
Test in all cases: KINOMEscan
Format in all cases: binding
Settings in all cases: read-out: Remaining enzyme activity
ABL1(H396P) = target: T1, ABL1(H396P) (Homo sapiens, UniProt P00519, H396P)
T1 construct: purchased Ambit (DiscoverX) KINOMEscan; Cerep
Summary of the method: (§1)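 Immobilized ligand beads, biotin-blocked and washed in SeaBlock buffer with BSA, Tween 20 and DTT, are incubated with DNA-tagged kinase and 10 μM SC81458. Compound occupying the active site lowers bead-bound kinase, which is quantified by qPCR of the tag.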

AKT1 = target: T2, AKT1 (Homo sapiens, UniProt P31749)
T2 construct: purchased Ambit (DiscoverX) KINOMEscan; Cerep
Summary of the method: as §1

AMPK-alpha1 = target: T3, AMPK-alpha1 (Homo sapiens, UniProt Q13131)
T3 construct: purchased Ambit (DiscoverX) KINOMEscan; Cerep
Summary of the method: as §1

ARK5 = target: T4, ARK5 (Homo sapiens, UniProt O60285)
T4 construct: purchased Ambit (DiscoverX) KINOMEscan; Cerep
Summary of the method: as §1

AURKC = target: T5, AURKC (Homo sapiens, UniProt Q9UQB9)
T5 construct: purchased Ambit (DiscoverX) KINOMEscan; Cerep
Summary of the method: as §1

CSNK1a1l = target: T6, CSNK1a1l (Homo sapiens, UniProt Q8N752)
T6 construct: purchased Ambit (DiscoverX) KINOMEscan; Cerep
Summary of the method: as §1

DCAMKL3 = target: T7, DCAMKL3 (Homo sapiens, UniProt Q9C098)
T7 construct: purchased Ambit (DiscoverX) KINOMEscan; Cerep
T7 sequence (Q9C098 whole entry): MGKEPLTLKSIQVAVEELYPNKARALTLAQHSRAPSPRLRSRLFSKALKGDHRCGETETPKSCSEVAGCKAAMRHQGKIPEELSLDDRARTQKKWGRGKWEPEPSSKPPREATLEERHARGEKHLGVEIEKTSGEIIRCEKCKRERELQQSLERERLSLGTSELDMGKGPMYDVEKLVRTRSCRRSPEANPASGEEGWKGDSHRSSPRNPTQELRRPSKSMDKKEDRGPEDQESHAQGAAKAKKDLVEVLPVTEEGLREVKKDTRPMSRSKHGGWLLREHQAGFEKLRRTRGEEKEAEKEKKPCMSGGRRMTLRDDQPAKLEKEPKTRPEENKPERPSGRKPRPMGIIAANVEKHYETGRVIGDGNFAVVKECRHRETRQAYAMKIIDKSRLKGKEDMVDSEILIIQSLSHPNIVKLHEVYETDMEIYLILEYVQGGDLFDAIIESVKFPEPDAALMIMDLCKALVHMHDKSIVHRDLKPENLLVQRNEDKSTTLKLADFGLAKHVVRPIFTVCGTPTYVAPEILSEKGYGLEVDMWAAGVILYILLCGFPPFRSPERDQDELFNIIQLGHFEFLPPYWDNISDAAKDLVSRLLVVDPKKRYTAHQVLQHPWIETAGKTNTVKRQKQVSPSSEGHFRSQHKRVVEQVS
Summary of the method: as §1

EGFR = target: T8, EGFR (Homo sapiens, UniProt P00533)
T8 construct: purchased Ambit (DiscoverX) KINOMEscan; Cerep
T8 sequence (P00533 25-1210): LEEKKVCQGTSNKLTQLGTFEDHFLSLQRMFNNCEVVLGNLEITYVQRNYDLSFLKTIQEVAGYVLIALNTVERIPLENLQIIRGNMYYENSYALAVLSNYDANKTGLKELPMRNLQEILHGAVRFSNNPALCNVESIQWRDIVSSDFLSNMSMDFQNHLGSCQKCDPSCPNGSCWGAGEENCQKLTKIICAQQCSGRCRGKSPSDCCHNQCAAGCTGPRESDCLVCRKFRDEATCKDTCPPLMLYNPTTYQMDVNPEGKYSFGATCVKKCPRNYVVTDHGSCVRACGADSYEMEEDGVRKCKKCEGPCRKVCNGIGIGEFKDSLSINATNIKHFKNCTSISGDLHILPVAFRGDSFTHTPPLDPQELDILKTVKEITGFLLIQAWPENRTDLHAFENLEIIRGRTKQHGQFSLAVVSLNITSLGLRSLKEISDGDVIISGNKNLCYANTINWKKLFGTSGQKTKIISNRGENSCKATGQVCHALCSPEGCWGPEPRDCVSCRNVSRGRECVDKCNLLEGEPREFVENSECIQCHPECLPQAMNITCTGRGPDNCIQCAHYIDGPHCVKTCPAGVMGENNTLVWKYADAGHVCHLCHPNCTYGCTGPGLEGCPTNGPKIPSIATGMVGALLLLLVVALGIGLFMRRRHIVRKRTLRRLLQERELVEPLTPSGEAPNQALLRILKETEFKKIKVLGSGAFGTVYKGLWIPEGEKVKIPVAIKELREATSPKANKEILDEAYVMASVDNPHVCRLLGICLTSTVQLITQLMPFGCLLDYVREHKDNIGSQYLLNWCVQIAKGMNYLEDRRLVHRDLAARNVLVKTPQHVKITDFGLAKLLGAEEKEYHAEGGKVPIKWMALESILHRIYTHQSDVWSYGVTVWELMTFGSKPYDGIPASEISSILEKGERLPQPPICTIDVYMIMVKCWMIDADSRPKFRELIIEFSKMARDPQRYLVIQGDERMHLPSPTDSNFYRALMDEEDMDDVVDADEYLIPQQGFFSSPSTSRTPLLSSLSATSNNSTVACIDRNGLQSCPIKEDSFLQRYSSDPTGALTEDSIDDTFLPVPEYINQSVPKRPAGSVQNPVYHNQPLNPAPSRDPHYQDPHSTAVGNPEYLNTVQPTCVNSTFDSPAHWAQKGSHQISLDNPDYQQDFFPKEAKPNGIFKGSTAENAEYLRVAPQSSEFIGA
Summary of the method: as §1

EGFR(G719C) = target: T9, EGFR(G719C) (Homo sapiens, UniProt P00533, G719C)
T9 construct: purchased Ambit (DiscoverX) KINOMEscan; Cerep
Summary of the method: as §1

ERBB2 = target: T10, ERBB2 (Homo sapiens, UniProt P04626)
T10 construct: purchased Ambit (DiscoverX) KINOMEscan; Cerep
T10 sequence (P04626 23-1255): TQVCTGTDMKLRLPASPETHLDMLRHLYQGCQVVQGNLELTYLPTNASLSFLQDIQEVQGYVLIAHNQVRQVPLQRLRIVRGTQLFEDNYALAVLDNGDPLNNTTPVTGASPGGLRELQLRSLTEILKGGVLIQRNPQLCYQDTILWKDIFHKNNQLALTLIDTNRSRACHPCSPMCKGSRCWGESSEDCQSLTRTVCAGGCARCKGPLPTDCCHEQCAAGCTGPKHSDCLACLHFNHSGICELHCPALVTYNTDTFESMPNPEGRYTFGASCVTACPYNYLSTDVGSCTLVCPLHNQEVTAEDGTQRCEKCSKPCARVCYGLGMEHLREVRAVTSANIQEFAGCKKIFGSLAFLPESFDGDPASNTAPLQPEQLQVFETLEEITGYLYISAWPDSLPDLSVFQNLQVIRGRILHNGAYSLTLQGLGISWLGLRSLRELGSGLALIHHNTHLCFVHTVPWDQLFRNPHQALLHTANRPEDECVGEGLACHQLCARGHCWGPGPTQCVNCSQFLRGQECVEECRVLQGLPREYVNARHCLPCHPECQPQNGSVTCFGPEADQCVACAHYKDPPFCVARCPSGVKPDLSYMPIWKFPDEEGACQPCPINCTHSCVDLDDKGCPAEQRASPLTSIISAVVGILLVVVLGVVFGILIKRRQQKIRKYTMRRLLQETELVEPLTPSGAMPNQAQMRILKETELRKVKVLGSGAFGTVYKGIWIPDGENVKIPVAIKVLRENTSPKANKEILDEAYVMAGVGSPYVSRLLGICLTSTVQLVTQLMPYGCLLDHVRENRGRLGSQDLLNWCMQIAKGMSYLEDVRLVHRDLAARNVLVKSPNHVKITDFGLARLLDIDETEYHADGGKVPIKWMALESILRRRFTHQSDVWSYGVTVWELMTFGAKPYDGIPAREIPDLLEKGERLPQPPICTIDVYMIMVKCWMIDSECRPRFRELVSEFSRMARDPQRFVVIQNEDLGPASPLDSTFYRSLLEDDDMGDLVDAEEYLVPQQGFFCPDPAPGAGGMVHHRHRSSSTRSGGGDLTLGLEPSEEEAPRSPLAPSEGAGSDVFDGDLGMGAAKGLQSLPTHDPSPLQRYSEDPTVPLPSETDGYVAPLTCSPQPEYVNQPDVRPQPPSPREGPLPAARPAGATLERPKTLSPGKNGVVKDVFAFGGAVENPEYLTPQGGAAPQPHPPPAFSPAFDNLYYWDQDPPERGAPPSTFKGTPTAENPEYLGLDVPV
Summary of the method: as §1

FER = target: T11, FER (Homo sapiens, UniProt P16591)
T11 construct: purchased Ambit (DiscoverX) KINOMEscan; Cerep
T11 sequence (P16591 whole entry): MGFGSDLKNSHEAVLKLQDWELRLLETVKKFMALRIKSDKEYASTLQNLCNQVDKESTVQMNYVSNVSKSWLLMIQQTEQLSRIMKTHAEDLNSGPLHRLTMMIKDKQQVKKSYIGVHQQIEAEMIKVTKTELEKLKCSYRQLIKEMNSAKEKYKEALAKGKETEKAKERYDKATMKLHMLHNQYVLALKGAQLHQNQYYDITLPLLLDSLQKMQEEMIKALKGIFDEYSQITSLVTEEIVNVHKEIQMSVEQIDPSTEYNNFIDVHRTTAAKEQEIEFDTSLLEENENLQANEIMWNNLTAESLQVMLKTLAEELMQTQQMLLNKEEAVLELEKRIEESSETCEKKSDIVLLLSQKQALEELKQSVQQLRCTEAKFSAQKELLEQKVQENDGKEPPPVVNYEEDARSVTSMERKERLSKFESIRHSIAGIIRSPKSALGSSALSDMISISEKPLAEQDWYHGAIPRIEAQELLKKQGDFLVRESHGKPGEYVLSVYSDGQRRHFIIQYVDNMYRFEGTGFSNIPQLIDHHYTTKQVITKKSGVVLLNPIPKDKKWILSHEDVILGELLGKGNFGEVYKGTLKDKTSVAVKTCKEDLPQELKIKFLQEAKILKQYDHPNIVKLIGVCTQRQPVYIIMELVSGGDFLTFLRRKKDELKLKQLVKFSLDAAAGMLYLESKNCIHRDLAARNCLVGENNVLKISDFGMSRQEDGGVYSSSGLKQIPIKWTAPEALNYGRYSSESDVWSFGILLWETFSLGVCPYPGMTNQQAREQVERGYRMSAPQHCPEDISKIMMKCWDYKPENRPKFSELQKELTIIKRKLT
Summary of the method: as §1

FLT3(K663Q) = target: T12, FLT3(K663Q) (Homo sapiens, UniProt P36888, K663Q)
T12 construct: purchased Ambit (DiscoverX) KINOMEscan; Cerep
Summary of the method: as §1

FLT4 = target: T13, FLT4 (Homo sapiens, UniProt P35916)
T13 construct: purchased Ambit (DiscoverX) KINOMEscan; Cerep
Summary of the method: as §1

HCK = target: T14, HCK (Homo sapiens, UniProt P08631)
T14 construct: purchased Ambit (DiscoverX) KINOMEscan; Cerep
Summary of the method: as §1

HPK1 = target: T15, HPK1 (Homo sapiens, UniProt Q92918)
T15 construct: purchased Ambit (DiscoverX) KINOMEscan; Cerep
Summary of the method: as §1

INSR = target: T16, INSR (Homo sapiens, UniProt P06213)
T16 construct: purchased Ambit (DiscoverX) KINOMEscan; Cerep
Summary of the method: as §1

[1] = target: T17, JAK2(JH1domain-catalytic) (Homo sapiens, UniProt O60674)
T17 construct: JAK2(JH1domain-catalytic); purchased Ambit (DiscoverX) KINOMEscan; Cerep
Summary of the method: as §1

LIMK1 = target: T18, LIMK1 (Homo sapiens, UniProt P53667)
T18 construct: purchased Ambit (DiscoverX) KINOMEscan; Cerep
Summary of the method: as §1

LTK = target: T19, LTK (Homo sapiens, UniProt P29376)
T19 construct: purchased Ambit (DiscoverX) KINOMEscan; Cerep
Summary of the method: as §1

NEK9 = target: T20, NEK9 (Homo sapiens, UniProt Q8TD19)
T20 construct: purchased Ambit (DiscoverX) KINOMEscan; Cerep
Summary of the method: as §1

PHKG2 = target: T21, PHKG2 (Homo sapiens, UniProt P15735)
T21 construct: purchased Ambit (DiscoverX) KINOMEscan; Cerep
Summary of the method: as §1

PIK3Cd = target: T22, PIK3Cd (Homo sapiens, UniProt O00329)
T22 construct: purchased Ambit (DiscoverX) KINOMEscan; Cerep
Summary of the method: as §1

PRKR = target: T23, PRKR (Homo sapiens, UniProt P19525)
T23 construct: purchased Ambit (DiscoverX) KINOMEscan; Cerep
T23 sequence (P19525 whole entry): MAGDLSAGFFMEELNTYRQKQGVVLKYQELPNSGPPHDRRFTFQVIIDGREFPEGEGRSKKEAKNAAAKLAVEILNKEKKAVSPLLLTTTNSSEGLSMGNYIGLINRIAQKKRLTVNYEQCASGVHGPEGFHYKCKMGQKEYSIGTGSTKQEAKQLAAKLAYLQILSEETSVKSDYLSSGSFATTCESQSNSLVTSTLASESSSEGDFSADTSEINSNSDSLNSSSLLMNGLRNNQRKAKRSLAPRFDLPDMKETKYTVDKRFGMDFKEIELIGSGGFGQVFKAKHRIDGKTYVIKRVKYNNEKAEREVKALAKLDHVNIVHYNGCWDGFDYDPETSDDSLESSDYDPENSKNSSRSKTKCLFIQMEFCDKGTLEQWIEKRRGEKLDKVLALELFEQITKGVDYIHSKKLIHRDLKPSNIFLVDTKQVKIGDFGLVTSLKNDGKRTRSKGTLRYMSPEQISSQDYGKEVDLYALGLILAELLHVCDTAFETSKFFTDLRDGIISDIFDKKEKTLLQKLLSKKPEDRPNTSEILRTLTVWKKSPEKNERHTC
Summary of the method: as §1

[2] = target: T24, RPS6KA4(Kin.Dom.2-C-term) (Homo sapiens, UniProt O75676)
T24 construct: RPS6KA4(Kin.Dom.2-C-term); purchased Ambit (DiscoverX) KINOMEscan; Cerep
Summary of the method: as §1

STK33 = target: T25, STK33 (Homo sapiens, UniProt Q9BYT3)
T25 construct: purchased Ambit (DiscoverX) KINOMEscan; Cerep
Summary of the method: as §1

TGFBR1 = target: T26, TGFBR1 (Homo sapiens, UniProt P36897)
T26 construct: purchased Ambit (DiscoverX) KINOMEscan; Cerep
Summary of the method: as §1

TNK1 = target: T27, TNK1 (Homo sapiens, UniProt Q13470)
T27 construct: purchased Ambit (DiscoverX) KINOMEscan; Cerep
Summary of the method: as §1

TYK2(JHdomain-catalytic) = target: T28, TYK2(JHdomain-catalytic) (Homo sapiens, UniProt P29597)
T28 construct: TYK2(JHdomain-catalytic); purchased Ambit (DiscoverX) KINOMEscan; Cerep
Summary of the method: as §1

[3] = target: T29, TYK2(JHdomain-speudokinase) (Homo sapiens, UniProt P29597)
T29 construct: TYK2(JHdomain-speudokinase); purchased Ambit (DiscoverX) KINOMEscan; Cerep
Summary of the method: as §1

WEE2 = target: T30, WEE2 (Homo sapiens, UniProt P0C1S8)
T30 construct: purchased Ambit (DiscoverX) KINOMEscan; Cerep
Summary of the method: as §1

ZAP70 = target: T31, ZAP70 (Homo sapiens, UniProt P43403)
T31 construct: purchased Ambit (DiscoverX) KINOMEscan; Cerep
T31 sequence (P43403 whole entry): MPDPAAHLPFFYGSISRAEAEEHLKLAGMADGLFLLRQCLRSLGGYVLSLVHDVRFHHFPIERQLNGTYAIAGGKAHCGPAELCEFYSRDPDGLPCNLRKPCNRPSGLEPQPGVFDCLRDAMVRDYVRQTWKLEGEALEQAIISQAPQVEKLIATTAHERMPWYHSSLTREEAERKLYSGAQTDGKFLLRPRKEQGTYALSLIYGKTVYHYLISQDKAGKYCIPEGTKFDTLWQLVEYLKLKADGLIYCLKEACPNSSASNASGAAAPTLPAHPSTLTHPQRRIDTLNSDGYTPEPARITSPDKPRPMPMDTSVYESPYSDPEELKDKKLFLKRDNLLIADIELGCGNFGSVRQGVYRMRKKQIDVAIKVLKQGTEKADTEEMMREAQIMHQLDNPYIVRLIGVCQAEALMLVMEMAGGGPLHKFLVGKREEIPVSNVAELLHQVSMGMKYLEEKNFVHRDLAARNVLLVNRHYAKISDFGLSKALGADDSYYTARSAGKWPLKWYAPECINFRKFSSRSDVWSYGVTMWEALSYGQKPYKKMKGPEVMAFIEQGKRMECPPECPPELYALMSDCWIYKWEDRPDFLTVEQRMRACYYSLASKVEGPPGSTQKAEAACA
Summary of the method: as §1

p38-gamma = target: T32, p38-gamma (Homo sapiens, UniProt P53778)
T32 construct: purchased Ambit (DiscoverX) KINOMEscan; Cerep
Summary of the method: as §1

SMILES: CCCCN1CCN(C(=N)c2cccc(NC(=O)Nc3ccc(S(=O)(=O)NCc4ccc(S(N)(=O)=O)cc4)cc3)c2)CC1 [SC81458, 4-(3-(3-((4-butylpiperazin-1-yl)(imino)methyl)phenyl)ureido)-N-(4-sulfamoylbenzyl) benzenesulfonamide]
- remaining binding at 10 µM (ABL1(H396P)): 100%
- remaining binding at 10 µM (AKT1): 87%
- remaining binding at 10 µM (AMPK-alpha1): 100%
- remaining binding at 10 µM (ARK5): 92%
- remaining binding at 10 µM (AURKC): 73%
- remaining binding at 10 µM (CSNK1a1l): 100%
- remaining binding at 10 µM (DCAMKL3): 62%
- remaining binding at 10 µM (EGFR): 100%
- remaining binding at 10 µM (EGFR(G719C)): 80%
- remaining binding at 10 µM (ERBB2): 100%
- remaining binding at 10 µM (FER): 100%
- remaining binding at 10 µM (FLT3(K663Q)): 93%
- remaining binding at 10 µM (FLT4): 100%
- remaining binding at 10 µM (HCK): 100%
- remaining binding at 10 µM (HPK1): 100%
- remaining binding at 10 µM (INSR): 100%
- remaining binding at 10 µM [1]: 100%
- remaining binding at 10 µM (LIMK1): 76%
- remaining binding at 10 µM (LTK): 100%
- remaining binding at 10 µM (NEK9): 100%
- remaining binding at 10 µM (PHKG2): 100%
- remaining binding at 10 µM (PIK3Cd): 73%
- remaining binding at 10 µM (PRKR): 91%
- remaining binding at 10 µM [2]: 92%
- remaining binding at 10 µM (STK33): 100%
- remaining binding at 10 µM (TGFBR1): 100%
- remaining binding at 10 µM (TNK1): 70%
- remaining binding at 10 µM (TYK2(JHdomain-catalytic)): 76%
- remaining binding at 10 µM [3]: 93%
- remaining binding at 10 µM (WEE2): 100%
- remaining binding at 10 µM (ZAP70): 89%
- remaining binding at 10 µM (p38-gamma): 85%
